The results in this text go back to patent US20200157144A1, “ANTIMICROBIAL PEPTIDOMIMETICS” (priority 2017, published 2020).

Holding throughout (experiment): microbe, parasite or virus in culture
The subject of assay [1] is Mupirocin-resistant MRSA ATCC-BAA-1556. In kind it is cell-based, Staphylococcus aureus. The gist of the method:
(§1)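 MIC (μM) is taken as the lowest concentration preventing bacterial growth by OD600 after overnight incubation at 35° C. Testing follows CLSI broth microdilution in cation-adjusted MH2 broth with ~1×10^6 CFU/mL and duplicate 2-fold dilutions spanning 100–0.195 μM.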

In assay [2] the test system is Mupirocin-resistant MRSA ATCC-BAA-1708. In kind it is cell-based, Staphylococcus aureus. Conditions: ATCC-BAA-1708; read-out: MIC. The gist of the method:
as §1

Assay [3] concerns Mupirocin-resistant MRSA ATCC-BAA-1750 (USA200). In kind it is cell-based, Staphylococcus aureus. Conditions: ATCC-BAA-1750; read-out: MIC. The gist of the method:
as §1

Assay [4] deals with Mupirocin-susceptible MRSA ATCC-33592 (ST239). It counts as cell-based, Staphylococcus aureus. Conditions: ATCC-33592; read-out: MIC. The gist of the method: as §1
Assay [5] concerns Mupirocin-susceptible MRSA ATCC-700699 (VISA). In kind it is cell-based, Staphylococcus aureus. Conditions: ATCC-700699; read-out: MIC. The gist of the method:
as §1

In assay [6] the test system is Mupirocin-susceptible MRSA ATCC-BAA-1681 (USA100). In kind it is cell-based, Staphylococcus aureus. Conditions: ATCC-BAA-1681; read-out: MIC. The method, boiled down:
as §1

Assay [7] concerns Mupirocin-susceptible MRSA ATCC-BAA-1707 (USA400). In kind it is cell-based, Staphylococcus aureus. The following applies: ATCC-BAA-1707; read-out: MIC. The gist of the method: as §1
The subject of assay [8] is Mupirocin-susceptible MRSA ATCC-BAA-1754 (ST45). In kind it is cell-based, Staphylococcus aureus. The following applies: ATCC-BAA-1754; read-out: MIC. The method, boiled down: as §1
The test system of assay [9] is Mupirocin-susceptible MRSA ATCC-BAA-1756 (USA300). It counts as cell-based, Staphylococcus aureus. Conditions: ATCC-BAA-1756; read-out: MIC. The gist of the method: as §1
The test system of assay [10] is Mupirocin-susceptible MRSA ATCC-BAA-2762 (EMRSA15, ST22). It counts as cell-based, Staphylococcus aureus. Conditions: ATCC-BAA-2762; read-out: MIC. The gist of the method: as §1
In assay [11] the test system is Enterococcus faecalis ATCC 51299. It counts as cell-based. Conditions: ATCC 51299. How it is done:
(§2) The antibacterial potency of Compound 34 was measured using the in vitro broth microdilution assay under assay conditions described by the Clinical and Laboratory Standards Institute. […] The test substance was dissolved in 100% DMSO (unless stated below), suspended completely by sonication or vortexing, diluted by 2-fold serial titrations in the same vehicle, for a total of 10 test concentrations (final concentrations: 100, 50, 25, 12.5, 6.25, 3.125, 1.56, 0.78, 0.39, 0.2 μM). A 4 μL aliquot of each dilution was added to 196 μL of broth medium seeded with the organism suspension in wells of a 96 well plate (bacterial count: 2-8×10^5 colony forming units/mL final). The final volume was 200 μL in each well and the final DMSO concentration was 2 percent. The incubation time is either 1 or 2 days at 36° C. All strains tested underwent aerobic respiration, except for ATCC BAA-1805 and ATCC 29399. Following incubation, the test plates were visually examined and wells were scored for growth or complete growth inhibition to define the minimum inhibitory concentration. Each test substance was evaluated in duplicate and the results below are the duplicate test values. Vehicle-control and an active reference agent were used as blank and positive controls, respectively.

The subject of assay [12] is Enterococcus faecium ATCC BAA-2320. It counts as cell-based. The following applies: ATCC BAA-2320. How it is done:
as §2

Assay [13] concerns Propionibacterium acnes ATCC 29399. In kind it is cell-based. Conditions: ATCC 29399. On the procedure:
as §2

Molecules are shown by their SMILES. Converted amounts (≈) assume the structure as drawn. Square brackets hold non-standard residues; d marks the D form. Peptide text beside a SMILES is read from it. dBip(4'-Cl) = N[C@H](Cc1ccc(-c2ccc(Cl)cc2)cc1)C(=O)O

Consider `N=C(N)NCCC[C@@H](NC(=O)[C@@H](Cc1ccc(-c2ccc(Cl)cc2)cc1)NC(=O)[C@@H](CCCNC(=N)N)NC(=O)[C@H](N)Cc1ccc(-c2ccc(Cl)cc2)cc1)C(N)=O` [Compound 34] (H-[dBip(4'-Cl)][dR][dBip(4'-Cl)][dR]-NH2), for which the MIC in [1] (Mupirocin-resistant MRSA ATCC-BAA-1556, cation-adjusted MH2 broth, overnight 35° C., OD600, read-out: MIC) is on record as 3.125 µM (≈ 2.64 µg/mL); in assay [2], 1.56 µM (≈ 1.32 µg/mL); in assay [3] it was 1.56 µM (≈ 1.32 µg/mL); in [4], 3.125 µM (≈ 2.64 µg/mL); in [5], 3.125 µM (≈ 2.64 µg/mL); in [6] it was 3.125 µM (≈ 2.64 µg/mL). In addition, the MIC in [7] was 3.125 µM (≈ 2.64 µg/mL); in assay [8], 3.125 µM (≈ 2.64 µg/mL); in assay [9], 1.56 µM (≈ 1.32 µg/mL); in [10], 3.125 µM (≈ 2.64 µg/mL); in assay [11], 3.13 µM (≈ 2.64 µg/mL); in assay [12], 1.56 µM (≈ 1.32 µg/mL). The compound further displayed an MIC in [13] of 1.56 µM (≈ 1.32 µg/mL). For the same compound, in assay [1] (against Mupirocin-resistant MRSA strains), the “improvement of bioactivity (lower MIC values) as compared to Compound 2” value is recorded as “about 4 fold”.
